From patent US8207347B2, “Pyridone derivatives as NK3 antagonists” (H. Lundbeck A/S, priority 2009, dated 2012)

Legend:
[1] = molecular target: T1, human NK3 receptor (Homo sapiens, UniProt P29371); experiment: NK3 receptor binding assay (filter-based competition binding, 3H-AE93103); settings: BHK cell membranes expressing human NK3 receptor; Ki from IC50 by Cheng Prusoff equation; read-out: Affinity (Ki/nM)
T1 construct: expressed in transfected cells
T1 sequence (P29371 1-465): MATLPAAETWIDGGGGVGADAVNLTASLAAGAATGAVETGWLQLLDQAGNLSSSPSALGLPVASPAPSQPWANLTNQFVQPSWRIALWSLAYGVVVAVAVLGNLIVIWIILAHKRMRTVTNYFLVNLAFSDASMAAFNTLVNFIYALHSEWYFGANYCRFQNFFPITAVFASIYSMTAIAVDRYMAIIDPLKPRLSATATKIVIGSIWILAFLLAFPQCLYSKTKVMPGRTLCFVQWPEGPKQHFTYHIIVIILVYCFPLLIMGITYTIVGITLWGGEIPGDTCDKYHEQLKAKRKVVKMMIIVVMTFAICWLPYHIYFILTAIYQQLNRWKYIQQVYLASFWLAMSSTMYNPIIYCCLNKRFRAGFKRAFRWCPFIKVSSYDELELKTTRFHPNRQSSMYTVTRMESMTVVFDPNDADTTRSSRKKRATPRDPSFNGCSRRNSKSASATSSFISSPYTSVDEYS
Procedure: BHK cells stably expressing the human NK3 receptor were seeded in harvesting plates in Dulbeccos MEM containing GlutaMax (862 mg/l), 1 mM sodium pyruvate, 10% fetal calf serum, 1% Pen/Strep, 1 mg/ml G418 and were grown at 34° C. in a humidified atmosphere containing 10% CO2. To increase receptor expression, 10 μM trichotatin A was added to the media 24 hours before harvest of the cells at a confluency of app 90%. Prior to the harvesting, the cells were washed twice with PBS without Mg^2+ of Ca^2+ and subsequently scrapped of in 10 ml PBS pr harvesting plate. The cells suspension were centrifuged at 1500×G in three minutes before resuspension in 15 mM Tris-HCl buffer pH 7.5 containing 2 mM MgCl2; 0.3 mM EDTA and 1 mM EGTA (buffer A). The cell suspension was homogenised and subsequently centrifuged at 40000×G in 30 minutes. The membrane-pellet was resuspended in buffer A containing 250 mM sucrose, aliquoted and stored at −80° C.
The assay is performed as a filter-based competition-binding in a 50 mM Tris pH 7.4 assay buffer containing 120 mM NaCl and 3 mM MnCl2. App 0.05 nM ^3H-AE93103 was mixed with test compounds before addition of 0.15 μg of a homogenised NK3 membrane preparation in a total volume of 300 μl. The assay plate is incubated for 90 min at RT before content of the wells is transferred using a cell-harvester to GF/C filter plates, which has been pretreated with 0.1% PEI. The filter is washed 3 times with 1 ml an ice-cold 50 mM Tris buffer, pH 7.4. The filter is dried and added scintillation liquid before the plate is counted in a topcounter 5 minutes pr well.
The total binding, which comprised less than 10% of added radioligand, was defined using assay buffer whereas the non-specific binding was defined in the presence of 1 μM SR142801. The non-specific binding constituted ˜10% of the total binding.
Data points are expressed in percent of the specific binding of ^3H-AE93103 and the […] (concentration causing 50% inhibition of ^3H-AE93103 specific binding) are determined by non-linear regression analysis using a sigmoidal variable slope curve fitting.

[2] = Nature reviews, 4, 967-975, 2005; cited from earlier work
[3] = cited from earlier work

| Ki [1] [nM] | SMILES | also measured |
| --- | --- | --- |
| 49 | CCCn1c(C)c(C(=O)N[C@H](c2cc(F)cc(F)c2)C2CCC2)c(C)c(Br)c1=O [Example 1ak, 5-Bromo-2,4-dimethyl-6-oxo-1-propyl-1,6-dihydro-pyridine-3-carboxylic acid [(S)-cyclobutyl-(3,5-difluoro-phenyl)-methyl]-amide] |  |
| 16 | CCCNn1c(C)c(C(=O)N[C@H](c2ccccc2)C2CCC2)c(C)c(Br)c1=O [Example 1i, 5-Bromo-2,4-dimethyl-6-oxo-1-propylamino-1,6-dihydro-pyridine-3-carboxylic acid ((S)-cyclobutyl-phenyl-methyl)-amide] |  |
| 67 | CCCn1c(C)c(C(=O)N[C@H](c2ccccc2Cl)C2CC2)c(C)c(Br)c1=O [Example 1s, 5-Bromo-2,4-dimethyl-6-oxo-1-propyl-1,6-dihydro-pyridine-3-carboxylic acid [(S)-(2-chloro-phenyl)-cyclopropyl-methyl]-amide] |  |
| 36 | CCCn1c(C)c(C(=O)N[C@H](c2ccccc2)C2CCC2)c(C)c(Br)c1=O [Example 1z, 5-Bromo-2,4-dimethyl-6-oxo-1-propyl-1,6-dihydro-pyridine-3-carboxylic acid ((S)-cyclobutyl-phenyl-methyl)-amide] |  |
| 52 | Cc1c(C(=O)N[C@H](c2cccc(F)c2)C2CCC2)c(C)n(-c2ccccc2)c(=O)c1Br [Example 2a, 5-Bromo-2,4-dimethyl-6-oxo-1-phenyl-1,6-dihydro-pyridine-3-carboxylic acid [(S)-cyclobutyl-(3-fluoro-phenyl)-methyl]-amide] |  |
| 24 | CCNn1c(C)c(C(=O)N[C@H](c2cccc(F)c2)C2CCC2)c(C)c(Br)c1=O [Example 2c, 5-Bromo-1-ethylamino-2,4-dimethyl-6-oxo-1,6-dihydro-pyridine-3-carboxylic acid [(S)-cyclobutyl-(3-fluoro-phenyl)-methyl]-amide] |  |
| 30 | CCCn1c(C)c(C(=O)N[C@H](c2cccc(F)c2)C2CCC2)c(C)c(Br)c1=O [Example 2d, 5-Bromo-2,4-dimethyl-6-oxo-1-propyl-1,6-dihydro-pyridine-3-carboxylic acid [(S)-cyclobutyl-(3-fluoro-phenyl)-methyl]-amide] |  |
| 50 | CCc1c(C(=O)N[C@H](c2cccc(F)c2)C2CCC2)c(C)n(-c2ccccc2)c(=O)c1Br [Example 2e, 5-Bromo-4-ethyl-2-methyl-6-oxo-1-phenyl-1,6-dihydro-pyridine-3-carboxylic acid [(S)-cyclobutyl-(3-fluoro-phenyl)-methyl]-amide] |  |
| 90 | CCCc1c(C(=O)N[C@H](c2cccc(F)c2)C2CCC2)c(C)n(-c2ccccc2)c(=O)c1Br [Example 2f, 5-Bromo-2-methyl-6-oxo-1-phenyl-4-propyl-1,6-dihydro-pyridine-3-carboxylic acid [(S)-cyclobutyl-(3-fluoro-phenyl)-methyl]-amide] |  |
| 7 | Cc1c(C(=O)N[C@H](c2cccc(F)c2)C2CCC2)c(C(F)(F)F)c(Br)c(=O)n1-c1ccccc1 [Example 2g, 5-Bromo-2-methyl-6-oxo-1-phenyl-4-trifluoromethyl-1,6-dihydro-pyridine-3-carboxylic acid [(S)-cyclobutyl-(3-fluoro-phenyl)-methyl]-amide] |  |
| 24 | Cc1c(C(=O)N[C@H](c2cccc(F)c2)C2CCC2)c(C(F)(F)F)c(Cl)c(=O)n1-c1ccccc1 [Example 2m, 5-Chloro-2-methyl-6-oxo-1-phenyl-4-trifluoromethyl-1,6-dihydro-pyridine-3-carboxylic acid [(S)-cyclobutyl-(3-fluoro-phenyl)-methyl]-amide] |  |
| 22 | CCCNn1c(C)c(C(=O)N[C@H](c2cccc(F)c2)C2CCC2)c(C)c(C#N)c1=O [Example 3b, 5-Cyano-2,4-dimethyl-6-oxo-1-propylamino-1,6-dihydro-pyridine-3-carboxylic acid [(S)-cyclobutyl-(3-fluoro-phenyl)-methyl]-amide] |  |
| 34 | Cc1c(C(=O)N[C@H](c2cccc(F)c2)C2CCC2)c(C)n(Cc2ncco2)c(=O)c1C#N [Example 3d, 5-Cyano-2,4-dimethyl-1-oxazol-2-ylmethyl-6-oxo-1,6-dihydro-pyridine-3-carboxylic acid [(S)-cyclobutyl-(3-fluoro-phenyl)-methyl]-amide] |  |
| 240 | C#Cc1c(C)c(C(=O)N[C@H](c2cccc(F)c2)C2CCC2)c(C)n(-c2ccccc2)c1=O [Example 3e, 5-Ethynyl-2,4-dimethyl-6-oxo-1-phenyl-1,6-dihydro-pyridine-3-carboxylic acid [(S)-cyclobutyl-(3-fluoro-phenyl)-methyl]-amide] |  |
|  | CC(=O)N(C)C1(c2ccccc2)CCN(CCC[C@]2(c3ccc(Cl)c(Cl)c3)CCCN(C(=O)c3ccccc3)C2)CC1 [Osanetant, osanetant] | bioavailability [2]: poor; blood-brain barrier penetration [2]: poor; clearance [2]: relatively high; solubility [2]: poor; effect in clinical trials, in particular on positive symptoms of psychosis ([3]; Am. J. Psychiatry, 161, 2004, 975-984): superior to placebo |
|  | CC[C@H](NC(=O)c1c(O)c(-c2ccccc2)nc2ccccc12)c1ccccc1 [talnetant] | bioavailability [2]: poor; blood-brain barrier penetration [2]: poor; clearance [2]: relatively high; solubility [2]: poor; effect on cognitive behaviour in clinical trials ([3]; schizophrenics, Curr. Opion. Invest. Drug, 6, 717-721, 2005): ameliorate the cognitive behaviour of schizophrenics |
